Earlier results, collected in PMC7395068, “The evolution of strategies to minimise the risk of human drug-induced liver injury (DILI) in drug discovery and development” (Archives of Toxicology, 2020).
Read-outs that look alike come from different tables or passages of the source.

Experiments:
[1] = cited from earlier work
[2] = system: HepG2 cells, primary human hepatocytes; settings: cited from earlier work
[3] = cited from earlier work; remark: listed apart in the source
[4] = system: THLE-Null and THLE-3A4 cells; settings: In vitro Assay; ref Gustafsson 2014; cited from earlier work
[5] = system: THLE or HepG2 cells, isolated mitochondria, BSEP; settings: cited from earlier work
[6] = system: rBsep; settings: cited from earlier work
[7] = system: human hepatocytes; settings: In vitro Assay; ref Xu 2008; cited from earlier work
[8] = system: isolated mouse liver mitochondria; settings: In vitro Assay; ref Porceddu 2012; cited from earlier work
[9] = system: HepG2 cells; settings: In vitro Assay; ref O'Brien 2006; cited from earlier work
[10] = system: primary human hepatocytes, NIH3T3 fibroblasts, BSEP, CYP3A4; settings: In vitro Assay; ref Schadt 2015; cited from earlier work
[11] = system: HepG2 cells; settings: In vitro Assay; ref Persson 2013; cited from earlier work
[12] = system: hLiMTs; settings: In vitro Assay; ref Proctor 2017; cited from earlier work
[13] = system: PHH; settings: In vitro Assay; ref Proctor 2017; cited from earlier work
[14] = In vitro Assay, ref Garside 2014
[15] = In vitro Assay, ref Dawson 2012
[16] = assignment in Garside 2014, ref Garside 2014

## O=c1[nH]cc(F)c(=O)[nH]1 [fluorouracil]
[1]; ref Chen 2016
  DILI +VE (5-8), DILI -VE (-4): +VE
  DILI severity category: vLess-DILI-Concern
[2]; [14]
  Cluster 1-6 +VE Assay: +VE
[3]; ref Garside 2014
  In vivo DILI: +VE

## O=C(O)c1cc(-c2ccccc2)nc2ccccc12 [cinchophen]
[1]; in vivo
  DILI +VE (5-8), DILI -VE (-4): +VE
  DILI severity category: vMost-DILI-Concern
[4]
  THLE-Null: -VE
[3]; in vivo
  In vivo DILI: +VE
[5]
  Partition Hybrid HRM Score: +VE
[6]; [15]
  Inhibition of rBsep cutoff<1& cmax u>.2: -VE
  Inhibition of rBsep cutoff<3: +VE

## O=NN(CCCl)C(=O)NCCCl [carmustine]
[2]
  Cluster 1-6 +VE Assay: +VE
[6]; [15]
  Inhibition of rBsep cutoff<3: -VE
[6]
  Inhibition of rBsep cutoff<1& cmax u>.2: -VE

## CO[C@@]1(NC(=O)C2SC(=C(C(N)=O)C(=O)O)S2)C(=O)N2C(C(=O)O)=C(CSc3nnnn3C)CS[C@@H]21 (stereo partly drawn) [cefotetan]
[1]; ref Chen 2016
  DILI +VE (5-8), DILI -VE (-4): -VE
  DILI severity category: Ambiguous DILI-concern
[2]; [14]
  Cluster 1-6 +VE Assay: -VE
[3]; ref Garside 2014
  In vivo DILI: -VE

## CC(C)(C)NCC(O)c1cc(O)cc(O)c1 (stereo not drawn) [terbutaline]
[1]; ref Chen 2016
  DILI +VE (5-8), DILI -VE (-4): +VE
  DILI severity category: vLess-DILI-Concern
[2]; [14]
  Cluster 1-6 +VE Assay: +VE
[3]; ref Garside 2014
  In vivo DILI: +VE

## COc1ccc(C(Cl)=C(c2ccc(OC)cc2)c2ccc(OC)cc2)cc1 [chlorotrianisene]
[2]; [14]
  Cluster 1-6 +VE Assay: -VE
[3]; ref Garside 2014
  In vivo DILI: -VE

## O=C1c2c(O)ccc(O)c2C(=O)c2c(NCCNCCO)ccc(NCCNCCO)c21 [mitoxantrone]
[2]; [14]
  Cluster 1-6 +VE Assay: +VE
[7]
  Structural based (HCI): +VE
[8]
  in vitro data EC2<=1x Cmax: -VE

## CC[C@@H](C(N)=O)N1CCCC1=O [levetiracetam]
[1]; ref Chen 2016
  DILI +VE (5-8), DILI -VE (-4): +VE
  DILI severity category: vLess-DILI-Concern
[2]; [14]
  Cluster 1-6 +VE Assay: +VE
[3]; ref Garside 2014
  In vivo DILI: +VE

## CC(Oc1c(Cl)cccc1Cl)C1=NCCN1 (stereo not drawn) [lofexidine]
[2]; ref Garside 2014
  Cluster 1-6 +VE Assay, In vitro Assay: -VE
[3]; [16]
  In vivo DILI: -VE

## O=C(O)c1ccccc1O [salicylic acid]
[4]
  THLE-Null: -VE
[8]
  in vitro data EC2<=1x Cmax: +VE
[6]; [15]
  Inhibition of rBsep cutoff<1& cmax u>.2: -VE
  Inhibition of rBsep cutoff<3: -VE

## CC[C@H]1OC(=O)[C@H](C)[C@@H](O[C@H]2C[C@@](C)(OC)[C@@H](O)[C@H](C)O2)[C@H](C)[C@@H](O[C@@H]2O[C@H](C)C[C@H](N(C)C)[C@H]2O)[C@](C)(O)C[C@@H](C)CN(C)[C@H](C)[C@@H](O)[C@]1(C)O [azithromycin]
[1]; ref Chen 2016
  DILI +VE (5-8), DILI -VE (-4): +VE
  DILI severity category: vLess-DILI-Concern
[2]; [14]
  Cluster 1-6 +VE Assay: +VE
[3]; […]
  In vivo DILI: +VE
[3]; ref Garside 2014
  In vivo DILI: +VE
[3]; ref Xu 2008
  In vivo DILI: -VE
[7]
  Structural based (HCI): -VE

## CC(C)(Oc1ccc(C2CC2(Cl)Cl)cc1)C(=O)O (stereo not drawn) [ciprofibrate]
[4]
  THLE-Null: -VE
  THLE-Null/3A4: -VE
[3]; ref Dawson 2012
  In vivo DILI: +VE
[3]; ref Gustafsson 2014
  In vivo DILI: +VE
[3]; ref O'Brien 2006
  In vivo DILI: +VE
[3]; ref Schadt 2015
  In vivo DILI: -VE
[3]; ref Xu 2008
  In vivo DILI: +VE
[9]
  Structural based (HCI): +VE
[7]
  Structural based (HCI): +VE
[10]
  Cellular toxicity (3T3 cells): -VE
  Combined Assay: -VE
  GSH adduct HML: -VE
  Hepatocyte cellular toxicity: -VE
  MitoTox 3T3: -VE
  TDI CYP3A4: -VE
  hBSEP inhibition: -VE
[6]; [15]
  Inhibition of rBsep cutoff<1& cmax u>.2: -VE
  Inhibition of rBsep cutoff<3: +VE

## Cc1nnc(NS(=O)(=O)c2ccc(N)cc2)s1 [sulfamethizole]
[2]; [14]
  Cluster 1-6 +VE Assay: -VE

## C[C@H](N[C@@H](CCc1ccccc1)C(=O)O)C(=O)N1CCC[C@H]1C(=O)O [enalaprilat]
[1]; ref Chen 2016
  DILI +VE (5-8), DILI -VE (-4): -VE
  DILI severity category: Ambiguous DILI-concern
[2]
  Cluster 1-6 +VE Assay: -VE
[3]; in vivo
  In vivo DILI: +VE

## [N-]=[N+]=CC(=O)OC[C@H](N)C(=O)O [azaserine]
[2]; [14]
  Cluster 1-6 +VE Assay: +VE
[7]
  Structural based (HCI): -VE

## CC(=O)[C@H]1CC[C@H]2[C@@H]3C[C@H](C)C4=CC(=O)CC[C@]4(C)[C@H]3[C@@H](O)C[C@]12C [medrysone]
[2]; ref Garside 2014
  Cluster 1-6 +VE Assay, In vitro Assay: +VE
[3]; [16]
  In vivo DILI: -VE

## Cc1nc(Nc2ncc(C(=O)Nc3c(C)cccc3Cl)s2)cc(N2CCN(CCO)CC2)n1 [dasatinib]
[1]; ref Chen 2016
  DILI +VE (5-8), DILI -VE (-4): +VE
  DILI severity category: vLess-DILI-Concern
[2]; [14]
  Cluster 1-6 +VE Assay: +VE
[3]; ref Garside 2014
  In vivo DILI: +VE
[3]; ref Porceddu 2012
  In vivo DILI: +VE
[8]
  in vitro data EC2<=1x Cmax: -VE
  in vitro data EC20<=2uM: +VE

## CCCCC[C@H](O)/C=C/[C@H]1[C@H](O)CC(=O)[C@@H]1C/C=C\CCCC(=O)O [dinoprostone]
[2]; [14]
  Cluster 1-6 +VE Assay: -VE
[3]; ref Garside 2014
  In vivo DILI: -VE

## Cn1c(=O)c2c(ncn2C)n(C)c1=O [caffeine]
[2]
  Cluster 1-6 +VE Assay: -VE
[8]
  in vitro data EC2<=1x Cmax: +VE

## Cn1c(=O)c2c(ncn2CC(O)CO)n(C)c1=O (stereo not drawn) [dyphylline]
[1]; ref Chen 2016
  DILI +VE (5-8), DILI -VE (-4): -VE
  DILI severity category: vNo-DILI-Concern
[2]; [14]
  Cluster 1-6 +VE Assay: -VE
[3]; ref Garside 2014
  In vivo DILI: -VE

## CC(=O)Oc1ccc(C(c2ccc(OC(C)=O)cc2)c2ccccn2)cc1 [bisacodyl]
[1]; ref Chen 2016
  DILI +VE (5-8), DILI -VE (-4): -VE
  DILI severity category: vNo-DILI-Concern
[11]
  Cluser analysis: -VE
  Structural based (HCI): -VE
[2]; [14]
  Cluster 1-6 +VE Assay: +VE
[3]; ref Garside 2014
  In vivo DILI: -VE
[3]; ref O'Brien 2006
  In vivo DILI: -VE
[3]; ref Persson 2013
  In vivo DILI: -VE
[3]; ref Porceddu 2012
  In vivo DILI: -VE
[9]
  Structural based (HCI): +VE
[8]
  in vitro data EC2<=1x Cmax: -VE
  in vitro data EC20<=2uM: +VE

## c1ccc(CN(CC2=NCCN2)c2ccccc2)cc1 [antazoline]
[2]; [14]
  Cluster 1-6 +VE Assay: -VE

## CCN(CC)CCNc1ccc(CO)c2sc3ccccc3c(=O)c12 [hycanthone]
[2]; [14]
  Cluster 1-6 +VE Assay: +VE
[3]; […]
  In vivo DILI: +VE
[3]; ref Garside 2014
  In vivo DILI: +VE
[3]; ref Xu 2008
  In vivo DILI: +VE
[7]
  Structural based (HCI): +VE

## CCCCc1nc(Cl)c(CO)n1Cc1ccc(-c2ccccc2-c2nn[nH]n2)cc1 [losartan]
[2]; [14]
  Cluster 1-6 +VE Assay: +VE
[5]; In vitro Assay, ref Aleo 2019
  Partition Hybrid HRM Score: +VE
  Ro2 Hybrid HRM Score: +VE
[10]
  Cellular toxicity (3T3 cells): -VE
  Combined Assay: +VE
  GSH adduct HML: +VE
  Hepatocyte cellular toxicity: +VE
  MitoTox 3T3: -VE
  TDI CYP3A4: -VE
  hBSEP inhibition: +VE

## OC(CCN1CCCCC1)(c1ccccc1)C1CC2C=CC1C2 (stereo not drawn) [biperiden]
[2]; [14]
  Cluster 1-6 +VE Assay: -VE

## CCCCN(CCCC)CCCOC(=O)c1ccc(N)cc1 [butacaine]
[2]; [14]
  Cluster 1-6 +VE Assay: +VE
[3]; ref Garside 2014
  In vivo DILI: -VE

## NC(CO)C(=O)NNCc1ccc(O)c(O)c1O (stereo not drawn) [benserazide]
[12]
  hLiMTs ATP <100uM: -VE
[13]
  PHH ATP <100uM: -VE
[2]; [14]
  Cluster 1-6 +VE Assay: -VE
[3]; ref Garside 2014
  In vivo DILI: -VE
[3]; ref Proctor 2017
  In vivo DILI: -VE
[3]; ref Schadt 2015
  In vivo DILI: -VE

## COc1ccc(CCN2CCC(Nc3nc4ccccc4n3Cc3ccc(F)cc3)CC2)cc1 [astemizole]
[2]; [14]
  Cluster 1-6 +VE Assay: +VE
[3]; ref Garside 2014
  In vivo DILI: +VE
[3]; ref O'Brien 2006
  In vivo DILI: -VE
[3]; ref Xu 2008
  In vivo DILI: -VE
[9]
  Structural based (HCI): -VE
[7]
  Structural based (HCI): -VE
